The target in series [1] is T1, MOD-5 CeSERT (Caenorhabditis elegans, UniProt Q963F3).
T1 sequence (Q963F3 1-671): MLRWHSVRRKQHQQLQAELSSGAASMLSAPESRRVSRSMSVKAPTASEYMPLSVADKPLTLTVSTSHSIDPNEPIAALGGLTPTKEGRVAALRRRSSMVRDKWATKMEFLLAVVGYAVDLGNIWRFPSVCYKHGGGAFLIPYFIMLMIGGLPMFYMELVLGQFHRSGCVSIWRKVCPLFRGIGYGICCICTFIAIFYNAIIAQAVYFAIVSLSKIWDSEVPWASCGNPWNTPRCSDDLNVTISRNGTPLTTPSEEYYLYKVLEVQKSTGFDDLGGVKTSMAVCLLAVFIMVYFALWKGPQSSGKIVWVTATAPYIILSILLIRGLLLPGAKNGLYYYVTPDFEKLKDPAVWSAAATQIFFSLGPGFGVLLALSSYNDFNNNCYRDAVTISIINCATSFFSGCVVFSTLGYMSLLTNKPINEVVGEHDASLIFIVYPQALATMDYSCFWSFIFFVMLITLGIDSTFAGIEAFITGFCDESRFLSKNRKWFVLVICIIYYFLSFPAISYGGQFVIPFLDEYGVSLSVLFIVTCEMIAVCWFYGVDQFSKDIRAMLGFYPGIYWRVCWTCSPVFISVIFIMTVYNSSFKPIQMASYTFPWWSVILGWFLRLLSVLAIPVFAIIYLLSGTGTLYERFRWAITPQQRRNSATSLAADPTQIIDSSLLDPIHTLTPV
Description: MOD-5-mediated [^3H]serotonin uptake in HEK293 cell lines stably expressing MOD-5. The settings on record: for MOD-5-mediated uptake of radiolabeled neurotransmitter: 50 μM radiolabeled neurotransmitter vs 1 μM [^3H]serotonin; for transport of [^3H]serotonin by MOD-5, % of control: inhibitor 100 μM, [^3H]serotonin 50 nM.

Series [2] deals with T1, MOD-5 CeSERT. Description: cell-based.
A further series concerns other SERTs. The settings on record: read-out: Km range of serotonin transport reported for other SERTs; cited from earlier work.
The next series has as its system C. elegans NSMs. Description: serotonin uptake in vivo, anti-serotonin staining of NSMs. As to conditions: tph-1, 2 mM 5-HT for 2 hours, no fluoxetine.
The target in a further series is T2, dSERT (Drosophila melanogaster, UniProt P51905).
T2 sequence (P51905 1-622): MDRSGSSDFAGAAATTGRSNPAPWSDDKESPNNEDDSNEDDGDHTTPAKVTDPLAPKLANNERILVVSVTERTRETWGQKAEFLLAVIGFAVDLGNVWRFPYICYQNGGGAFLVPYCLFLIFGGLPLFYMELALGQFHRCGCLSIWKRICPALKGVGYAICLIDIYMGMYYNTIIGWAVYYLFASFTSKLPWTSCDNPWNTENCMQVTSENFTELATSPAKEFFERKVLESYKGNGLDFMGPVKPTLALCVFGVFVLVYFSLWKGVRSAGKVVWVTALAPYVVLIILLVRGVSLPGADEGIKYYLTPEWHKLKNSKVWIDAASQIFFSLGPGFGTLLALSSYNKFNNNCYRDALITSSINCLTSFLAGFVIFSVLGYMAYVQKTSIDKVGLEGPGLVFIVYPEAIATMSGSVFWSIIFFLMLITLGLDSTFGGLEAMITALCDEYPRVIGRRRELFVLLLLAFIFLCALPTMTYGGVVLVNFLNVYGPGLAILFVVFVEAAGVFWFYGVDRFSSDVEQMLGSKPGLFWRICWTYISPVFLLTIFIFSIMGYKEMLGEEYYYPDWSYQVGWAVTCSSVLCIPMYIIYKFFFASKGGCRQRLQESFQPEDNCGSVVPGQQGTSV
The settings on record: inhibitor 200 μM, [^3H]serotonin 100 nM; cited from earlier work.

Series [3] has as its system C. elegans. Description: fluoxetine-induced paralysis (liquid locomotion assay). Format: in vivo. The source says: (Five trials with 20 animals of each genotype at each concentration and the animals were scored for paralysis after ten minutes.) There was no difference in the time-course of paralysis at any of the concentrations tested. These observations indicate that fluoxetine-induced paralysis in C. elegans is not caused by the lack of serotonin uptake from synapses. Fluoxetine-treated wild-type and mod-5(n3314) mutant animals assumed a rigid body posture. […] Serotonin has been proposed to decrease excitatory input to the locomotory muscles (Nurrish et al., Neuron 24:231–242, 1999).
(§1) The plates were allowed to dry at room temperature with their lids removed for more than 2 hours.
Animals to be tested for sensitivity or insensitivity to serotonin in this liquid locomotion assay were picked as L4 animals 16–20 hours prior to assay and the plates were coded so that the experimenter was blind to the genotype of the animals to be scored. On the day of the assay, serotonin (as a creatinine sulphate salt) was dissolved just before use, in M9, at the required concentrations, and 200 μl were aliquoted to the wells of a flat-bottomed 96-well polystyrene plate. […] Fluoxetine-induced paralysis was scored in a similar manner at 10 min.

The test system of series [4] is C. elegans. As to conditions: in vivo; cited from earlier work.
In series [5] the test system is C. elegans. Kind of series: fluoxetine-induced nose contraction. As to conditions: 20 minutes. Format: in vivo. The source says:
This conclusion is consistent with the conclusion by Choy and Thomas (1999) that fluoxetine-mediated nose contraction is serotonin-independent, although their hypothesis was based on studies of cat-1(e1111) mutants, which are defective in signaling by several biogenic amines (Duerr et al., J Neurosci 19:72–84, 1999), and cat-4 mutants, which we found to not completely lack serotonin (FIG. 1B).

For series [6], the system named is C. elegans. Kind of series: egg-laying assay. It is filed as in vivo. How it is done: Egg-laying assays were performed as described in Trent et al. (Genetics 104:619–647, 1983).
The test system of series [7] is C. elegans. Kind of series: enhanced slowing response (locomotory rate of food-deprived animals on bacteria). Format: in vivo. How it is done: as §1
For the experiment shown in FIG. 2, well-fed and food-deprived animals were transferred to assay plates with or without a bacterial lawn, and the locomotory rate of each animal was recorded after 5 min; food-deprived animals were transferred to plates without bacteria 30 min prior to the transfer to locomotory assay plates as is also described in Sawin et al. (Neuron 26:619–623, 2000). At least 10 trials were performed for each genotype for each condition. For FIG. 2, each trial involved testing at least five animals for each of the conditions; a given animal was tested in only one condition. p values were calculated by comparing the combined data for the mutants from all of the separate trials under one set of conditions to the combined data for the wild-type animals assayed in parallel under the same conditions. In FIG. 2B the data were obtained from three well-fed animals of each ablation state, seven mock-ablated and food-deprived animals, and 12 NSM-ablated and food-deprived animals. In FIG. 2D, serotonin dose-response curves for wild-type and mod-5 mutant animals were generated from averages of five trials with 20 animals of each genotype at each concentration in which animals were scored for movement after 5 min.
Alternatively, nematodes to be tested in a non-liquid locomotion assay were picked as L4 animals 16–20 hours prior to the assay. Locomotion was assayed by placing the nematode on an assay plate (prepared by spreading a solution of E. coli strain HB101 in NGM agar in 5 cm plates, using a ring with an inner diameter of approximately 1 cm and an outer diameter of approximately 3.5 cm, and allowing the bacteria to grow 13–15 hours at 37 C.), observing each nematode under a dissecting microscope for 20 seconds, and counting the number of dorsal-ventral bends that occurred in the anterior portion of the body during the interval.
To assay locomotion rates in food-deprived animals, 5–15 animals were removed from plates with ample food, washed twice in S-basal buffer, and transferred to 5 cm NGM agar plates without bacteria. Food-deprived animals were incubated on these plates for 30 minutes at room temperature, and then were transferred to assay plates. Locomotion rates were assayed as described above for satiated animals.

Substrate in series [8]: NCCc1c[nH]c2ccc(O)cc12
Kind of series: cells, lysate or membranes. The settings on record: other: HEK293 GFPMOD-5 cells, Eadie-Hoftsee transformation; pH 7.4; 37.0 °C.

Several values for one entry are separate records, joined by “and”; a condition that tells them apart may be missing. Identical values can stand only once.

Consider `N[C@@H](CCC(=O)O)C(=O)O` [glutamate], for which the “MOD-5-mediated uptake of radiolabeled neurotransmitter” value (from here on “MOD-5-mediated uptake”) at MOD-5 CeSERT [1] was “inefficient at translocating”.
Same read-out and setting: the value for `NC[C@H](O)c1ccc(O)c(O)c1` [NE, norepinephrine] was “inefficient at translocating”.
What is called Ki is the dissociation constant of the complex between target and ligand, obtained from inhibition or displacement. As for `CN(C)CCCN1c2ccccc2CCc2ccccc21` [imipramine], the Ki at MOD-5 CeSERT [2] is 0.089 ± 0.058 µM.
For orientation: Km means the concentration of substrate that gives half-maximal velocity. Take `NCCc1c[nH]c2ccc(O)cc12` [serotonin]: the “Vmax of MOD-5-mediated [^3H]serotonin transport” value at MOD-5 CeSERT [1] (HEK293 GFPMOD-5 cells) was 8.31×10^−9 nmoles per cell per min. Further, the Michaelis constant (Km) with other SERTs is 0.28 to 0.63 µM. The “% Serotonin-positive NSMs” value in the series with C. elegans NSMs (mod-5(n3314)) turned out to be 0%; in the series with C. elegans NSMs, 98%.
With `NCCCC(=O)O` [GABA, gamma-aminobutyric acid], the “MOD-5-mediated uptake” value on MOD-5 CeSERT [1] is listed as “inefficient at translocating”.
Take `NCCc1ccc(O)cc1` [tyramine]: the “transport of [^3H]serotonin by MOD-5, % of control” value at MOD-5 CeSERT [1] was 54%±10%. Also, the “dSERT-mediated transport of [^3H]serotonin, % of control” value on dSERT was 95%±15%.
As for `NCCc1c[nH]cn1` [histamine], the “MOD-5-mediated uptake” value on MOD-5 CeSERT [1] was “inefficient at translocating”.
For the molecule `NCC(O)c1ccc(O)cc1` (stereo not drawn) [octopamine], the “transport of [^3H]serotonin by MOD-5, % of control” value at MOD-5 CeSERT [1] is recorded as 86%±12%. In addition, at dSERT, the “dSERT-mediated transport of [^3H]serotonin, % of control” value is given as 82%±15%.
Molecule `COC(=O)[C@H]1[C@@H](OC(=O)c2ccccc2)C[C@@H]2CC[C@H]1N2C` [cocaine] returned a Ki on MOD-5 CeSERT [2] of 4.08 ± 0.349 µM.
Regarding `CNCCC(Oc1ccc(C(F)(F)F)cc1)c1ccccc1` (stereo not drawn) [fluoxetine], the “paralysis induced by fluoxetine treatment” value is recorded as “retained wild-type sensitivity to fluoxetine” with C. elegans [3] (mod-5(n3314) mutants vs wild-type, scored after ten minutes) and “paralyzed tph-1 mutants to a similar extent as wild-type animals” in the series with C. elegans [3] (tph-1 mutants vs wild-type). The “concentrations leading to paralysis, contraction of nose muscles, stimulation of egg-laying” value with C. elegans [4] is 0.25–1 mg/ml and 0.7–2.9 mM. In addition, the “proportion of animals with contracted noses” value in the series with C. elegans [5] (tph-1, 2.9 mM) is given as 100%; in the series on C. elegans [5] (wild-type and mod-5(n3314), 1.5 mM), “approximately 25%”; with C. elegans [5] (wild-type and mod-5(n3314), 2.9 mM), 100%. The stimulation of egg-laying result is reported as “completely resistant” in the series on C. elegans [6] (cat-4 mutants); “no effect on egg-laying” with C. elegans [6] (egl-1(n1084) mutants (lack HSNs)); “stimulated to lay eggs to nearly the same extent as was the wild-type” in the series with C. elegans [6] (mod-5(n3314) mutants, 1.5 mM fluoxetine); “partially resistant” in the series on C. elegans [6] (tph-1 mutants). Further, the “potentiation of the enhanced slowing response” value is reported as “exhibited a potentiated enhanced slowing response” in the series on C. elegans [7] (bas-1, cat-4 mutants preincubated with 2 mM serotonin); “potentiated by fluoxetine” with C. elegans [7] (mod-1(ok103) mutants); “completely resistant” with C. elegans [7] (mod-5(n3314), mod-1(ok103) double mutants); “slow their locomotory rate more” in the series on C. elegans [7] (wild-type, food-deprived in 0.22 mM fluoxetine).
Take `NCCc1ccc(O)c(O)c1` [dopamine]: at MOD-5 CeSERT [1], the “MOD-5-mediated uptake” value is given as “inefficient at translocating”.

B1: MOD-5 CeSERT (Caenorhabditis elegans) (protein)
chain: T1 sequence (Q963F3 1-671)
With B1, in series [8], the Km worked out at 0.15 ± 0.008 µM.
